Experimental findings from PubChem BioAssay AID1033 (Sanford-Burnham Center for Chemical Genomics, 2008) are described below.

Calls of active or inactive are those of the source. How the calls were made is not given here.

The target of the assay is Chaperone protein DnaK (Escherichia coli (strain K12)) (UniProt P0A6Y8). Kind of assay: E. coli DnaK SBD ligand binding – biophysical, NMR, chaperone (AID 1033). The following applies: Purified DnaK SBD.
Sequence of Chaperone protein DnaK (Escherichia coli (strain K12)) (P0A6Y8 whole entry, looked up): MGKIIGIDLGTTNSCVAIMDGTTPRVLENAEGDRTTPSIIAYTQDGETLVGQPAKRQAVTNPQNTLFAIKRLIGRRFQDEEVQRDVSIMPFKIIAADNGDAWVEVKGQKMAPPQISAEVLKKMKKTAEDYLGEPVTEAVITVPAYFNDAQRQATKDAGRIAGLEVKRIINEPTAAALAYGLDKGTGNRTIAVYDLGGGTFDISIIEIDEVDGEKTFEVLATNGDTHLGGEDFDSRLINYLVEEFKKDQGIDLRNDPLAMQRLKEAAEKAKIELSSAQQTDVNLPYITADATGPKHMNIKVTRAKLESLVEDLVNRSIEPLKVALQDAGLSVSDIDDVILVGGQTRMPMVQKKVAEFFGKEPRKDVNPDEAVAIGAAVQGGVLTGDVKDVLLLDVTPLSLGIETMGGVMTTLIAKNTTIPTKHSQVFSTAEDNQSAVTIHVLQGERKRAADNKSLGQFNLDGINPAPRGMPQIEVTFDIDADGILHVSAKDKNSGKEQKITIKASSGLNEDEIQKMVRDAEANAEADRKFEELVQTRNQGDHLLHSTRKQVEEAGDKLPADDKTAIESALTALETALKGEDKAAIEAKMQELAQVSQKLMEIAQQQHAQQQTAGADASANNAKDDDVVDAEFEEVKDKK

On to `O=C(O)c1ccc2sccc2c1`, for which the Kd (commonly the constant that tells how readily two partners part at equilibrium) is > 4 mM (inactive).

For `COc1ccc(S(=O)(=O)NCCO)cc1`, the Kd is > 4 mM (inactive).

On to `Cc1nn(-c2ccccc2)nc1C(=O)O`, for which the Kd is > 4 mM (inactive).

For the compound `CN1CCN(C(=O)c2ccccc2C(=O)O)CC1`, the Kd is > 4 mM (inactive).

Consider `C/C(O)=c1/sc2cc(C)nc(=N)n2c1=O`, for which the Kd was > 4 mM (inactive).

On to `Cn1nnc2c(N3CCC(C(N)=O)CC3)ncnc21`, for which the Kd was > 4 mM (inactive).

Regarding `Cc1nn(CC(=O)Nc2ccccn2)c(=O)c2ccccc12`, the Kd was > 4 mM (inactive).

Regarding `CN1C(=O)CC[C@H]1c1cccnc1`, the Kd is > 4 mM (inactive).

As to `Cc1nc(-c2cccc(C(=O)O)c2)cs1`, the Kd is > 4 mM (inactive).

Consider `C/C=C/c1ccc2c(c1)OCO2`, for which the Kd is > 4 mM (inactive).

On to `Cc1nn2c(=O)nc3sc4c(c3c2[nH]c1=O)CCCC4`, for which the Kd is > 4 mM (inactive).

Turning to `Nc1cccc(-c2cnco2)c1`, the Kd is > 4 mM (inactive).

As for `CC(=O)OCC(OC(C)=O)C(OC(C)=O)C(OC(C)=O)C(OC(C)=O)C(COC(C)=O)OC(C)=O` (stereo unspecified), the Kd was > 4 mM (inactive).

As for `Cn1c2c(c(=O)n(C)c1=O)CN(Cc1ccco1)CN2`, the Kd is > 4 mM (inactive).

For the compound `OCC1=Cc2ccccc2OC1`, the Kd was > 4 mM (inactive).

For the compound `Cc1ccc(C(=O)Nc2c[nH]c(=O)[nH]c2=O)cc1`, the Kd was > 4 mM (inactive).

Turning to `O=C1CCCCCN1CO`, the Kd is > 4 mM (inactive).

Take `O=c1cnnc(SCCc2ccccc2)[nH]1`: the Kd was > 4 mM (inactive).

For `O=C(O)c1cc(O)c2c(c1)C(=O)c1cc(O)cc(O)c1C2=O`, the Kd is > 4 mM (inactive).

Turning to `CC(=O)Nc1nnc(-c2ccccc2S(C)(=O)=O)o1`, the Kd was > 4 mM (inactive).

For `Cc1cc(Cl)ccc1NC(=O)C(N)=O`, the Kd was > 4 mM (inactive).

For the compound `CCCCCCCCCCCC1=C(O)C(=O)C=C(O)C1=O`, the Kd was > 4 mM (inactive).

As for `C=C[C@@](C)(O)CCC1C(=C)C[C@H](OC(C)=O)C2C(C)(C)CCCC12C` (stereo partly specified), the Kd was > 4 mM (inactive).

For `Nc1cc(=O)[nH]c(=O)n1-c1ccccc1`, the Kd was > 4 mM (inactive).

With `C=C[C@@]1(C)CC(=O)[C@@]2(O)[C@](C)(O1)[C@@H](OC(C)=O)[C@@H](O)C1C(C)(C)CC[C@H](O)[C@@]12C` (stereo partly specified), the Kd was > 4 mM (inactive).

`CC1(C)Cc2nc3[nH]c(=S)[nH]c(=O)c3cc2CO1`: the Kd was > 4 mM (inactive).

Turning to `CC(=O)c1c(C)nn(CC(=O)O)c1C`, the Kd was > 4 mM (inactive).

`NN1C(=O)/C(=C/c2ccc(O)c(O)c2)SC1=S`: the Kd was > 4 mM (inactive).

Take `NC12CC3CC(C1)CC(O)(C3)C2`: the Kd was > 4 mM (inactive).

Turning to `COC(=O)c1cccc(N)c1`, the Kd was > 4 mM (inactive).

As to `Oc1cc(O)c2c(c1)O[C@H](c1ccc(O)c(O)c1)[C@@H](O)C2`, the Kd was > 4 mM (inactive).

As to `COC(=O)[C@]1(C)CCC[C@]2(C)c3ccc(C(C)C)cc3C(=O)CC12` (stereo partly specified), the Kd was > 4 mM (inactive).

Take `Cn1nnc2cc(C(=O)N3CCSCC3)ccc21`: the Kd is > 4 mM (inactive).

Consider `Cn1c(=O)[nH]c(=O)c2c1ncn2CCN1CCCCC1`, for which the Kd was > 4 mM (inactive).

On to `Cc1ccccc1NC(=O)C1CC(=O)N=C(N)S1` (stereo unspecified), for which the Kd is > 4 mM (inactive).

In the case of `CC(=O)OC[C@H]1O[C@@H](Oc2cc(OC(C)=O)c3c(=O)cc(-c4ccc(OC(C)=O)cc4)oc3c2)[C@H](OC(C)=O)[C@@H](OC(C)=O)[C@@H]1OC(C)=O`, the Kd was > 4 mM (inactive).

For the compound `CC(=O)N1CCN(S(=O)(=O)c2ccccc2)CC1`, the Kd was > 4 mM (inactive).

Turning to `CC(C)n1c(Nn2cnnc2)nc2ccccc21`, the Kd is > 4 mM (inactive).

For `C/C=C(/C)C(=O)O[C@H]1CC[C@@]2(C)[C@@H]3CC[C@H]4[C@]5(O)C[C@H](O)[C@@]6(O)[C@@H](CN7C[C@@H](C)CC[C@H]7[C@@]6(C)O)[C@]5(O)C[C@@]42OC13O`, the Kd is > 4 mM (inactive).

Take `Cc1ccc2c(c1)CCCN2C(=O)c1c(C)noc1C`: the Kd is > 4 mM (inactive).

For `Nc1[nH]c(=S)[nH]c(=O)c1-c1ccccc1`, the Kd was > 4 mM (inactive).

As to `O=c1ccnc(Nc2ccccc2O)[nH]1`, the Kd is > 4 mM (inactive).

`CC(=O)c1cnc(Nc2nc(C)c3ccccc3n2)nc1C`: the Kd was > 4 mM (inactive).

Take `Nc1ncnc(NC2CCS(=O)(=O)C2)c1[N+](=O)[O-]` (stereo unspecified): the Kd is > 4 mM (inactive).

Turning to `Cc1cc(=O)[nH]c(N)n1`, the Kd was > 4 mM (inactive).

On to `O=c1[nH]c2ccccc2c(=O)n1CCCO`, for which the Kd is > 4 mM (inactive).

Take `CCOC(=O)c1c(SC)nc(=O)[nH]c1C`: the Kd was > 4 mM (inactive).

For `O=C1Nc2ccc(S(=O)(=O)NCCO)c3cccc1c23`, the Kd is > 4 mM (inactive).

Take `CC(=O)NC1=C(N(C)C)C(=O)c2ccccc2C1=O`: the Kd is > 4 mM (inactive).

With `O=C(O)CCC(=O)c1cccc2ccccc12`, the Kd was > 4 mM (inactive).

On to `Cc1nnc(SCC(N)=O)c2ccccc12`, for which the Kd is > 4 mM (inactive).

For `Nc1cncc(C(=O)O)c1`, the Kd was > 4 mM (inactive).

As to `O=C1C=CC(=O)N1c1ccc(N2CCOCC2)cc1`, the Kd is > 4 mM (inactive).

With `NC(=NCCC[C@H](N)C(=O)O)NC(CCC(=O)O)C(=O)O` (stereo partly specified), the Kd is > 4 mM (inactive).

Take `OCCCc1nc2ccc(C(F)(F)F)cc2[nH]1`: the Kd was > 4 mM (inactive).

Take `CN1CCN(c2ncnc3nc[nH]c23)CC1`: the Kd is > 4 mM (inactive).

Consider `Cn1c(=O)c2c(ncn2CCNC2=NCCC2)n(C)c1=O`, for which the Kd was > 4 mM (inactive).

Regarding `O=C(O)c1ncoc1-c1ccccc1`, the Kd was > 4 mM (inactive).

As for `COCC(=O)Nc1ccc(F)cc1F`, the Kd is > 4 mM (inactive).

Regarding `Cc1c(-c2ccccc2)[n+](=O)c(-c2ccco2)c(C)n1[O-]`, the Kd is > 4 mM (inactive).

For `O=C(Nc1ccccc1)Nc1ccccc1`, the Kd is > 4 mM (inactive).

`CSc1nc(C)cc(-n2ccc(=O)[nH]c2=O)n1`: the Kd is > 4 mM (inactive).

Consider `Cc1nnsc1C(=O)N(C)c1ccccc1`, for which the Kd was > 4 mM (inactive).

For `NC(=O)CCN1C(=O)c2ccccc2C1=O`, the Kd was > 4 mM (inactive).

Take `NC(=O)Cn1nc(-c2ccc(F)cc2)ccc1=O`: the Kd was > 4 mM (inactive).

For the compound `O=C(O)Cc1noc2ccccc12`, the Kd is > 4 mM (inactive).

On to `O=C1c2ccccc2C(=O)N1OCc1ccccc1`, for which the Kd was > 4 mM (inactive).

As for `Cc1ccc(SCc2cc(=O)n3[nH]c(C)nc3n2)cc1`, the Kd was > 4 mM (inactive).

For `COc1ccc2c(c1)c1n[nH]c(=S)nc1n2C`, the Kd was > 4 mM (inactive).

As for `CC12CN([N+](=O)[O-])C3(C(N)=O)CC1CCC23C` (stereo unspecified), the Kd is > 4 mM (inactive).

As to `CC(C)Oc1ccc(NC(N)=O)cc1`, the Kd was > 4 mM (inactive).

For the compound `CCC(C)C(=O)c1c(O)c(C)c2oc3c(C)c(O)c(C(=O)C(C)CC)c(O)c3c2c1O` (stereo unspecified), the Kd is > 4 mM (inactive).

Take `CCc1c(C)[nH]c(=S)c(C(N)=O)c1C`: the Kd was > 4 mM (inactive).

As for `O=C(NCc1ccccc1Br)c1cccs1`, the Kd is under 0.2 mM.

For the compound `Cc1cccc(-n2c(N)cc(=O)[nH]c2=S)c1C`, the Kd was > 4 mM (inactive).

As to `O=C1C[C@@H](c2ccc(O)cc2)Oc2cc(O)cc(O)c21`, the Kd is > 4 mM (inactive).

Consider `NCc1nnnn1-c1ccccc1`, for which the Kd was > 4 mM (inactive).

Regarding `CCN1CCC(=NO)CC1`, the Kd is > 4 mM (inactive).

For `Cc1nnc(SCC(=O)N2CCCCC2)s1`, the Kd was > 4 mM (inactive).

`N#CCCn1c(=O)oc2ccccc21`: the Kd is > 4 mM (inactive).

Take `CC(=O)C1=C(O)C(=O)NC1c1ccccc1` (stereo unspecified): the Kd is > 4 mM (inactive).

Take `OCc1ccc2nonc2c1`: the Kd is > 4 mM (inactive).

With `O=C(Nc1ccccc1[N+](=O)[O-])c1ccc(=O)[nH]n1`, the Kd was > 4 mM (inactive).

As to `O=C(O)C1(O)C[C@@H](O)C(O)[C@H](O)C1` (stereo partly specified), the Kd is > 4 mM (inactive).

As to `O=C(CSc1ncn[nH]1)c1ccc2c(c1)OCO2`, the Kd is > 4 mM (inactive).

Regarding `NS(=O)(=O)c1ccc(NC(=O)/C=C\C(=O)O)cc1`, the Kd is > 4 mM (inactive).

Regarding `O=C(Nc1ccccc1C(F)(F)F)c1cnccn1`, the Kd is > 4 mM (inactive).

As to `CC1CCC2(OC1)OC1CC3C4CCC5C[C@@H](O)CCC5(C)C4=CCC3(C)C1[C@@H]2C` (stereo partly specified), the Kd is > 4 mM (inactive).

Regarding `COc1cccc(N2CCNCC2)c1`, the Kd is > 4 mM (inactive).

As for `OCc1ccc2nsnc2c1`, the Kd was > 4 mM (inactive).

Take `O=C(NN1C(=O)C2C3C=CC(C3)C2C1=O)C1CC=CCC1` (stereo unspecified): the Kd was > 4 mM (inactive).

In the case of `O=C(O)CCC(=O)c1c[nH]c2ccccc12`, the Kd is > 4 mM (inactive).

As for `Cc1ccc(S(=O)(=O)CCc2ccccn2)cc1`, the Kd was > 4 mM (inactive).

As to `Cn1cnnc1SCC(=O)Nc1ccccc1`, the Kd was > 4 mM (inactive).

Turning to `CSc1ccc(S(=O)(=O)N2CCCC2)cc1`, the Kd was > 4 mM (inactive).

With `CCCNC(=O)c1cnc2n(c1=O)CCS2`, the Kd was > 4 mM (inactive).

As to `CN1C(CC(=O)c2ccccc2)CCCC1CC(O)c1ccccc1` (stereo unspecified), the Kd was > 4 mM (inactive).

`[O-][n+]1onc2c1CCc1c-2nc(-c2ccccc2)n1O`: the Kd is > 4 mM (inactive).

`Cc1cc(C)n2nc(SCC(=O)c3ccccc3)nc2n1`: the Kd is > 4 mM (inactive).

As to `CCC[C@H]1CC2=C(C[C@@H](CC)CC3=C1C(=O)OC3=O)C(=O)OC2=O`, the Kd is > 4 mM (inactive).

`O=C(/C(=N\O)n1cncn1)c1ccccc1Cl`: the Kd is > 4 mM (inactive).
